Assay results reported in patent US20120093836A1, “PHARMACEUTICAL COMPOSITIONS FOR TREATING METASTASIS” (UNIVERSIDAD DEL PAIS VASCO, priority 2009, published 2012).

How the values were obtained:
[1] = system: adhesion of MB16 cells to the HSE (hepatic sinusoidal endothelium); assay: Tumor adhesion assay for C. albicans-induced tumor adhesion (fluorescence, BCECF-AM labelled MB16 cells on HSE); assay type: cell-based, mouse; conditions: IL-1β receptor blocked, added 15 minutes before MNF
Procedure: The adhesion was measured using the method based on the fluorescence measurement. The MB16 cells were resuspended in a solution of 2′,7′-bis-(2-carboxyethyl)-5.6-carboxyfluorescein acetoxymethyl ester (BCECF-AM) in DMEM-HEPES (40 μg/ml) and were incubated for 20 minutes at 37° C. The cells were then washed and resuspended in DMEM-HEPES at a concentration of 2×10^5 cells/ml. The autofluorescence of the HSE culture was determined.
Subsequently, the HSE cells were incubated with different strains and extracts of C. albicans (5×10^5 cells/well), MNF (2 μg carbohydrate/ml), EC (2 μg carbohydrate/ml), PF (2 μg protein/ml) or commercial mannan from Saccharomyces cerevisiae (100 μg/ml) for 8 hours. The non-treated HSE cells received basal medium as control. […]
Once the time of adhesion ended, the co-cultures were excited with light of wavelength 488 nm and the fluorescence emitted at 530 nm by the BCEF incorporated to the tumor cells in the scanning fluorometer in plate was recorded. […] Subsequently, 1 ml of the same adhesion medium was added in each well and the fluorescence emitted was read. Thus a relative value (in arbitrary units of fluorescence intensity) could be determined with respect to the number of tumor cells added. […]

TNF-α = assay: Production of TNF-α by the HSE (ELISA of supernatants); assay type: cell-based, mouse; conditions: IL-1β receptor blocked
Procedure: The concentration of TNF-α and IL-18 in the supernatants was determined using a monoclonal antibody-based commercial ELISA kit (R&D Systems) following the manufacturer's instructions. The tumor adhesion assays of C. albicans-induced tumor adhesion and B16 melanoma tumor cell proliferation assays in response to C. albicans (both described above) were performed in collaboration with the company, Pharmakine S.L.
The stimulation of the endothelium causes a cascade of cytokine which ends with the expression of adhesion molecules such as the VCAM-1 (Mendoza (cited at supra) 1998, Vidal-Vanaclocha et al. 2000. PNAS, 97: 734-739) wherein the tumor cells are adhered. To know whether the process triggered by the MNF which as a consequence caused the increase of the adhesion of MB16 cells to the HSE was also mediated by cytokines, the concentration of TNF-α, the cytokine which is described as one of the first and most important cytokines acting in the proinflammatory cascade described in the HSE was measured.

IL-Ra: IL-1β receptor antagonist molecule (Amgen Biologicals)
effect on the increase of the tumor adhesion to the HSE induced by the MNF (in words) [1]: completely inhibits
effect on the release of TNF-α by the endothelium stimulated by the mannoproteins of C. albicans (in words) (TNF-α): partially reduces
